Measurements taken from US20130310396A1, “THIAZOLIDINE DERIVATIVES AND THEIR THERAPEUTIC USE” (priority 2011, published 2013).

Assay: in vitro
Assay type: in vitro ADME
Details: human liver microsomes, 0.5 mg/mL microsomal protein, 1 mM NADPH, 37° C., N=1; for half-life: both sexes
Procedure: The liver microsomes stability of compounds of Examples 1, 4 and 5 were compared with Teneligliptin.
The metabolic stability of compounds of the invention was tested using pooled liver microsomes prepared from mixed-gender humans, with 1 mM NADPH. The samples were analyzed using an LTQ-Orbitrap XL mass spectrometer. HRMS was used to determine the peak area response ratio (peak area corresponding to test compound or control divided by that of an analytical internal standard) without running a standard curve. HRMS scan was performed in an appropriate m/z range in order to detect all plausible metabolites.
The assay was run with a single incubation (N=1). Incubated test compounds at 37° C. in a buffer solution containing 0.5 mg/mL microsomal protein. Initiated the reaction by adding cofactors, sampling at 0, 10, 20, 30, and 60 minutes. Incubated positive control (5 μM testosterone) in parallel and sampling at 0, 5 10, and 30 minutes.
The control compound testosterone was run in parallel to verify the enzymatic activity of the microsomes. After the final time point, fluorimetry was used to confirm the addition of NADPH to the reaction mixture. T1/2 of control met the internal acceptance criteria.
Column: Thermo BDS Hypersil C18 30×2.0 mm, 3 μm, with guard column M.P. Buffer: 25 mM ammonium formate buffer, pH 3.5 Aqueous Reservoir (A): 90% water, 10% buffer Organic Reservoir (B): 90% acetonitrile, 10% buffer

With `[2H]C1([2H])CSC([2H])([2H])N1C(=O)C1CC(N2CCN(c3cc(C)nn3-c3ccccc3)CC2)CN1` [Example 1, ((2S,4S)-4-(4-(3-Methyl-1-phenyl-1H-pyrazol-5-yl)piperazin-1-yl)pyrrolidin-2-yl)(2,2,4,4-D4-thiazolidin-3-yl)methanone] the half-life was greater than 1 h, the “Percentage Remaining 0 min” value was 100% and the “Percentage Remaining 10 min” value was 92%. For the same molecule, the “Percentage Remaining 20 min” value was 85%, the “Percentage Remaining 30 min” value was 70% and the “Percentage Remaining 60 min” value was 60%.
In the case of `[2H]c1ccc(-n2nc(C)cc2N2CCN([C@@H]3CN[C@H](C(=O)N4CCSC4)C3)CC2)cc1` [Example 4, ((2S,4S)-4-(4-(1-(4-D-Phenyl)-3-methyl-1H-pyrazol-5-yl)piperazin-1-yl)pyrrolidin-2-yl)(thiazolidin-3-yl)methanone], the half-life is reported as greater than 1 h, the “Percentage Remaining 0 min” value is reported as 100% and the “Percentage Remaining 10 min” value is reported as 95%. For the same molecule, the “Percentage Remaining 20 min” value was 87%, the “Percentage Remaining 30 min” value was 75% and the “Percentage Remaining 60 min” value was 65%.
For `[2H][C@@]1(N2CCN(c3cc(C)nn3-c3ccccc3)CC2)CN[C@H](C(=O)N2CCSC2)C1` [Example 5], the half-life was greater than 1 h, the “Percentage Remaining 0 min” value was 100% and the “Percentage Remaining 10 min” value was 90%. The “Percentage Remaining 20 min” value was 87%, the “Percentage Remaining 30 min” value was 70% and the “Percentage Remaining 60 min” value was 60%.
For `Cc1cc(N2CCN([C@@H]3CN[C@H](C(=O)N4CCSC4)C3)CC2)n(-c2ccccc2)n1` [Teneligliptin, ((2S,4S)-4-(4-(3-methyl-1-phenyl-1H-pyrazol-5-yl)piperazin-1-yl)pyrrolidin-2-yl)(thiazolidin-3-yl)methanone, reference compound], the half-life was greater than 1 h, the “Percentage Remaining 0 min” value was 100% and the “Percentage Remaining 10 min” value was 90%. For the same molecule, the “Percentage Remaining 20 min” value was 85%, the “Percentage Remaining 30 min” value was 65% and the “Percentage Remaining 60 min” value was 55%.
